{"source": "patent US20140187627A1", "about": "“USES OF C15-SUBSTITUTED ANDROGRAPHOLIDE DERIVATIVES IN THE PREPARATION OF ANTI-HEPATITIS B VIRUS MEDICAMENT” (ZHENGZHOU UNIVERSITY, priority 2011, published 2014)", "key": {"HBV": {"test_system": "HBV", "conditions": "cited from earlier work"}, "[1]": {"test_system": "HBV surface antigen (HBsAg) of HBV-transfected HepG2.2.15 cell line", "experiment": "Inhibition of HBsAg secretion in culture supernatant of HepG2.2.15 cells (ELISA), with MTT cytotoxicity for therapeutic index", "type": "cell-based, Hepatitis B virus", "method": "HepG2.2.15 cell line, stably transfected with HBV-DNA, was used to evaluate the inhibition of the compounds against the HBV surface antigen (HBsAg) level in the culture supernatant of HepG2.2.15 cell. HepG2.2.15 cells were seeded at a density of 1.25×10^4 cells/well into 48-well plates, 0.5 ml RPMI1640 medium containing 10% fetal bovine serum, 100 unit/ml penicillin, 100 μg/ml streptomycin and 380 μg/ml geneticin (G418) was added to the well. Cells were incubated at 37° C. in a humidified incubator of 5% CO2 for 24 h, and then the culture medium was replaced by fresh medium containing Lamivudine (the positive drug) and compounds of this invention at five concentrations. The culture medium was replaced by a fresh one after 3 days and 6 days incubation, respectively. On d9, the supernatant was collected to determine the HBsAg level and the cells were used to assay the viability by MTT method.\nAdd 100 μl PBS solution containing 0.5 mg/ml MTT [3-(4,5-dimethylthiazol-2-yl)-2,5diphenyltetrazolium bromide] to the well after removing the supernatant, incubate at 37° C. for 4 h, remove the medium, add […] of DMSO to each well and the plates were shaken for 10 min. The optical density value (A) of each well was read using a PowerWaveX Microplate Scanning Spectrophotometer (Bio-tek Instruments, Inc) at 490 nm. Cells survival rate was calculated. […]"}}, "note": "Several values for one entry are separate records, joined by “and”; a condition that tells them apart may be missing. Equal entries are not always repeated.", "data": [{"smiles": "C=C1CCC2C(C)(COC(=O)c3cccnc3)C(OC(=O)c3cccnc3)CCC2(C)C1C=CC1=CC(=Cc2ccc(Cl)cc2)OC1=O", "note": "(stereo not drawn) [15-p-chlorobenzylidene-14-deoxy-11, 12-didehydro-3, 19-dinicotinate-andrographolide]", "values": [{"measurement": "Anti-HBV effect in vitro", "setting": "HBV", "value": "anti-HBV effect in vitro"}]}, {"smiles": "Nc1ccn([C@@H]2CS[C@H](CO)O2)c(=O)n1", "note": "[Lamivudine]", "values": [{"measurement": "Therapeutic index (TI = TC50/IC50)", "setting": "[1]; HepG2.2.15 cells, treated for 9d, TC50 by MTT", "value": "greater than 2"}, {"measurement": "IC50", "setting": "[1]; Hepatitis B virus, HepG2.2.15, 216 h, read-out: IC50 against HBsAg secretion", "value": "~10 µg/mL and ~43.7 µM"}]}]}
